Earlier results as cited in article PMC10799843 (Molecular pharmaceutics, 2023).

Test system: denatured collagen
Settings: control scrambled peptide

Collagen binding affinity: lacking in collagen binding affinity
Substance: Cy5.5-KGGG-OfGGOfGfGfOfOGOfGOOfGGOOffG [^SCHP]
